# Counter-ions that a name gives are not always drawn.
# Tested on: kidney
# Assay: Transcriptional profiling on Affymetrix GeneChips, single dose, naïve mice: kidney
# Assay type: in vivo, C57BL/6 mice
# Conditions: for Number of differentially expressed genes identified: Kidney: Naïve, Single Dose, 100 mpk, vs Vehicle
# Description: Treated mice were sacrificed at 2, 7, or 12 hours. Tissues (liver, spleen, kidney, jejunum, cortex, hippocampus, striatum and whole blood) were collected and analyzed by transcriptional profiling on mouse Affymetrix GeneChips.
# Tissues (liver, spleen, kidney, jejunum, cortex, hippocampus, striatum and whole blood) were collected and analyzed by transcriptional profiling on mouse Affymetrix GeneChips.
# Animals were exposed to CO2 and whole blood collected via cardiac puncture. Two 100 μl aliquots of whole blood were collected in 1.5 mL microcentrifuge tubes and snap frozen in liquid nitrogen. Peripheral (liver, spleen, kidney and jejunum) and CNS brain (cerebellum, hippocampus, striatum and cortex) tissues were harvested and snap frozen in liquid nitrogen, with special care taken to collect tissues of similar size and from the same location. All samples were stored at −80° C. until RNA extraction was conducted.
# For RNA preparation, frozen tissues were placed in 2 mL RNAse-free 96-well blocks with 1.5 mL QIAzol Lysis Reagent (QIAgen) and a 3.2 mm stainless steel bead (BioSpec Products, Bartlesville, Okla.). Tissues were disrupted for four cycles of 45 seconds in a Mini-Beadbeater (Biospec Products). RNA was extracted in chloroform and the aqueous phase was mixed with an equal volume of 70% ethanol. Extracted RNA was applied to RNeasy 96 plates and purified by the spin method according to the manufacturer's protocol (RNeasy 96 Universal Tissue Protocol, QIAgen, Hilden Germany).
# Automated sample amplifications and biotin labelings were carried out using the NuGEN Ovation RNA Amplification system V2 (Cat #3100), Ovation WB reagent (Cat #1300) and Encore Biotin module (Cat #4200) (NuGEN Technologies, Inc, San Carlos, Calif.) according to manufacturer's recommendations using an Arrayplex automated liquid handler (Beckman Coulter, Indianapolis, Ind.). Two micrograms of biotin labeled sscDNA probe were hybridized to Affymetrix GeneChip Affymetrix HT_MG-430_PM plate arrays with modified conditions as described in Allaire et al. Washing and staining of the hybridized arrays were completed as described in the GeneChip Expression analysis technical manual for HT plate arrays using the Genechip® Array Station (Affymetrix, Santa Clara, Calif.) with modifications as described in Allaire et al. The processed GeneChip® plate arrays were scanned using GeneTitan scanner (Affymetrix, Santa Clara, Calif.).
# Affymetrix scans were subject to quality control (QC) measures. These tests included a visual inspection of the distribution of raw signal intensities and an assessment of RNA degradation, relative log expression (RLE), and normalized unsealed standard error (NUSE). All sample scans that passed these QC metrics were included in the analysis.
# All CEL files were subjected to GC-content-based Robust Multi-array Average (GCRMA) normalization (version 2.20.0) (Irizarry R A, et al. Nucleic Acids Res 2003; 31:e15; Li C, et al. Genome Biol 2001; 2:[…]0032). Expression levels were log (base 2) transformed.
# All calculations and analyses were carried out using R (version 2.11.1) and Bioconductor computational tools (Gentleman R. Springer Science+Business Media 2005).
structure (smiles),measurement,setting,value
"COC(=O)/C=C/C(=O)O [MMF, monomethyl fumarate]",FC Hfe 1422645_PM_at,"100MMF-vs-Veh, 12 h",1.56
same,FC Ikbkg 1421209_PM_s_at,"100MMF-vs-Veh, 12 h",1.57
same,FC Mep1b 1418215_PM_at,"100MMF-vs-Veh, 12 h",−1.55
same,FC Mthfd2 1419253_PM_at,"100MMF-vs-Veh, 12 h",1.65
same,FC Myo5a 1419754_PM_at,"100MMF-vs-Veh, 12 h",−3.09
same,FC Nek6 1423596_PM_at,"100MMF-vs-Veh, 12 h",1.69
same,FC Pnkd 1418746_PM_at,"100MMF-vs-Veh, 12 h",1.51
same,FC Slc6a4 1417150_PM_at,"100MMF-vs-Veh, 12 h",1.58
same,FC Slc38a3 1418706_PM_at,"100MMF-vs-Veh, 12 h",1.81
same,FC Smcp 1418358_PM_at,"100MMF-vs-Veh, 12 h",−2.49
same,FC Srxn1 (1419942_PM_at),"100MMF-vs-Veh, 12 h",1.96
same,FC Tfrc 1422966_PM_a_at,"100MMF-vs-Veh, 12 h",1.51
same,FC Tiam2 1423186_PM_at,"100MMF-vs-Veh, 12 h",1.84
same,FC Txnrd1 1421529_PM_a_at,"100MMF-vs-Veh, 12 h",1.55
same,"Number of genes, DMF Only / MMF Only",Kidney,94
same,Asns (1451095_PM_at) differential expression,"Kidney, 2 hr",2.46
same,Cbr3 (1427912_PM_at) differential expression,"Kidney, 2 hr",2.96
same,Gdf15 (1418949_PM_at) differential expression,"Kidney, 2 hr",5.50
same,Maf (probe set 1437473_PM_at) differential expression,"Kidney, 2 hr",−1.56
same,Mthfd2 (1419253_PM_at) differential expression,"Kidney, 2 hr",2.03
same,Number of differentially expressed genes identified: Kidney,2 h after last dosing,274
same,Number of differentially expressed genes identified: Kidney,7 h after last dosing,156
same,Number of differentially expressed genes identified: Kidney,12 h after last dosing,151
same,Asns (1451095_PM_at) differential expression,"kidney, 7 hr",2.13
same,Cbr1 (probe set 1460196_PM_at) differential expression,"kidney, 7 hr",1.58
same,Cbr3 (1427912_PM_at) differential expression,"kidney, 7 hr",9.54
same,Cul9 (probe set 1439866_PM_at) differential expression,"kidney, 7 hr",−1.52
same,Dbp (probe set 1418174_PM_at) differential expression,"kidney, 7 hr",−1.73
same,Fam107a (probe set 1435918_PM_at) differential expression,"kidney, 7 hr",−1.77
same,Frem2 (probe set 1457038_PM_at) differential expression,"kidney, 7 hr",−1.66
same,Gdf15 (1418949_PM_at) differential expression,"kidney, 7 hr",1.98
same,Gpr135 (probe set 1441944_PM_s_at) differential expression,"kidney, 7 hr",1.66
same,Ido2 (probe set 1425778_PM_at) differential expression,"kidney, 7 hr",−1.52
same,Il18 (probe set 1417932_PM_at) differential expression,"kidney, 7 hr",−1.52
same,Kcnh1 (probe set 1435994_PM_at) differential expression,"kidney, 7 hr",−1.61
same,Kif20b (probe set 1439695_PM_a_at) differential expression,"kidney, 7 hr",−2.61
same,Mthfd2 (1419253_PM_at) differential expression,"kidney, 7 hr",1.89
same,Nmral1 (probe set 1430530_PM_s_at) differential expression,"kidney, 7 hr",−1.52
same,Ppm1e (probe set 1434990_PM_at) differential expression,"kidney, 7 hr",−1.53
same,Rab38 (probe set 1417700_PM_at) differential expression,"kidney, 7 hr",−1.57
same,Slc48a1 (probe set 1450410_PM_a_at) differential expression,"kidney, 7 hr",1.58
same,Sphk2 (probe set 1426230_PM_at) differential expression,"kidney, 7 hr",−1.54
same,Tmem86a (probe set 1428758_PM_at) differential expression,"kidney, 7 hr",−1.56
same,Wdr90 (probe set 1426767_PM_at) differential expression,"kidney, 7 hr",−1.58
same,Acot1 (probe set 1449065_PM_at) differential expression,"kidney, 12 hr",1.59
same,Acot1 /// Acot2 (probe set 1422997_PM_s_at) differential expression,"kidney, 12 hr",1.51
same,Acsm2 (probe set 1427224_PM_at) differential expression,"kidney, 12 hr",−1.52
same,Aldh1a1 (probe set 1416468_PM_at) differential expression,"kidney, 12 hr",2.21
same,Arhgap26 (probe set 1440688_PM_at) differential expression,"kidney, 12 hr",−1.57
same,Asns (1451095_PM_at) differential expression,"kidney, 12 hr",2.49
same,Atp11a (probe set 1421167_PM_at) differential expression,"kidney, 12 hr",−1.62
same,B4galt5 (probe set 1433617_PM_s_at) differential expression,"kidney, 12 hr",−1.51
same,C8a (probe set 1428012_PM_at) differential expression,"kidney, 12 hr",−1.51
same,Cbr1 (probe set 1460196_PM_at) differential expression,"kidney, 12 hr",2.10
same,Cbr3 (1427912_PM_at) differential expression,"kidney, 12 hr",7.02
same,Cldn1 (probe set 1437932_PM_a_at) differential expression,"kidney, 12 hr",1.57
same,Dio3os (probe set 1435121_PM_at) differential expression,"kidney, 12 hr",1.60
same,Dpys (probe set 1436291_PM_a_at) differential expression,"kidney, 12 hr",1.51
same,Ep400 (probe set 1449610_PM_at) differential expression,"kidney, 12 hr",−1.67
same,Fga (probe set 1424279_PM_at) differential expression,"kidney, 12 hr",1.79
same,Gbe1 (probe set 1420654_PM_a_at) differential expression,"kidney, 12 hr",1.51
same,Gdf15 (1418949_PM_at) differential expression,"kidney, 12 hr",2.01
same,Gpr19 (probe set 1421756_PM_a_at) differential expression,"kidney, 12 hr",1.50
same,Gpr135 (probe set 1441944_PM_s_at) differential expression,"kidney, 12 hr",1.59
same,Gpt (probe set 1426502_PM_s_at) differential expression,"kidney, 12 hr",1.51
same,Gsta2 (probe set 1421040_PM_a_at) differential expression,"kidney, 12 hr",1.61
same,Gstp1 (probe set 1449575_PM_a_at) differential expression,"kidney, 12 hr",1.54
same,Kif20b (probe set 1439695_PM_a_at) differential expression,"kidney, 12 hr",−2.85
same,Klk1b21 (probe set 1451607_PM_at) differential expression,"kidney, 12 hr",1.57
same,Maf (probe set 1437473_PM_at) differential expression,"kidney, 12 hr",1.53
same,Mthfd2 (1419253_PM_at) differential expression,"kidney, 12 hr",1.65
same,Nek6 (probe set 1423596_PM_at) differential expression,"kidney, 12 hr",1.69
same,Nfia (probe set 1446742_PM_at) differential expression,"kidney, 12 hr",−1.74
same,Orc4 (probe set 1431172_PM_at) differential expression,"kidney, 12 hr",1.50
same,Pigl (probe set 1440965_PM_at) differential expression,"kidney, 12 hr",1.52
same,Pnkd (probe set 1418746_PM_at) differential expression,"kidney, 12 hr",1.51
same,Rcor3 (probe set 1428343_PM_at) differential expression,"kidney, 12 hr",−1.51
same,Reep6 (probe set 1430128_PM_a_at) differential expression,"kidney, 12 hr",1.51
same,Slc5a3 (probe set 1440227_PM_at) differential expression,"kidney, 12 hr",−1.50
same,Slc6a4 (probe set 1417150_PM_at) differential expression,"kidney, 12 hr",1.58
same,Slc8a1 (probe set 1437675_PM_at) differential expression,"kidney, 12 hr",−1.86
same,Slc38a3 (probe set 1418706_PM_at) differential expression,"kidney, 12 hr",1.81
same,Slc39a8 (probe set 1448482_PM_at) differential expression,"kidney, 12 hr",−1.55
same,Slc48a1 (probe set 1450410_PM_a_at) differential expression,"kidney, 12 hr",1.53
same,Slco2a1 (probe set 1444242_PM_at) differential expression,"kidney, 12 hr",1.63
same,Smarca2 (probe set 1452333_PM_at) differential expression,"kidney, 12 hr",−1.60
same,Tfrc (probe set 1422966_PM_a_at) differential expression,"kidney, 12 hr",1.51
same,Tmie (probe set 1443964_PM_at) differential expression,"kidney, 12 hr",1.65
same,Trim16 (probe set 1460629_PM_at) differential expression,"kidney, 12 hr",1.51
same,FC 1200003I10Rik /// 1200015M12Rik /// A130040M12Rik /// E430024C06Rik 1427932_PM_s_at,"kidney, 100MMF-vs-Veh, 12 h",1.54
same,FC 1200016E24Rik (1452418_PM_at),"kidney, 100MMF-vs-Veh, 12 h",1.50
same,FC 1300002K09Rik 1453234_PM_at,"kidney, 100MMF-vs-Veh, 12 h",1.88
same,FC 1441333_PM_at (no gene symbol),"kidney, 100MMF-vs-Veh, 12 h",−2.46
same,FC 1441971_PM_at (no gene symbol),"kidney, 100MMF-vs-Veh, 12 h",1.51
same,FC 1444920_PM_at (no gene symbol),"kidney, 100MMF-vs-Veh, 12 h",−1.56
same,FC 1447396_PM_at (no gene symbol),"kidney, 100MMF-vs-Veh, 12 h",−1.52
same,FC 1455722_PM_at (no gene symbol),"kidney, 100MMF-vs-Veh, 12 h",−1.53
same,FC 1458599_PM_at (no gene symbol),"kidney, 100MMF-vs-Veh, 12 h",1.57
same,FC 1459091_PM_at (no gene symbol),"kidney, 100MMF-vs-Veh, 12 h",2.38
same,FC 2010003K11Rik (1424626_PM_at),"kidney, 100MMF-vs-Veh, 12 h",1.65
same,FC 2310043L19Rik (1440008_PM_at),"kidney, 100MMF-vs-Veh, 12 h",1.86
same,FC 3110009E18Rik (1428023_PM_at),"kidney, 100MMF-vs-Veh, 12 h",1.58
same,FC 4933427G17Rik 1431905_PM_s_at,"kidney, 100MMF-vs-Veh, 12 h",1.59

# Reference: US20160115540A1, “PRODRUGS AND DRUGS” (Biogen MA Inc., priority 2013, published 2016)
